Test results as given in PubChem BioAssay (NCI).
“And” between values parts separate entries of the source, which are not always exact repeats. Equal entries are not always repeated.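 Compound exposure: 48 hours, 5 concentrations, 96-well plates. Abbreviation: GI50, concentration required for 50% inhibition of growth. The concentration for full growth arrest is given as TGI.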

Key:
Assay in all cases: NCI anticancer screen, dose series, 48 h
OVCAR-4 ovarian = test system: OVCAR-4 ovarian
MDA-MB-435 = test system: MDA-MB-435
HT29 colon = test system: HT29 colon
SF-539 CNS = test system: SF-539 CNS
CAKI-1 renal = test system: CAKI-1 renal
OVCAR-5 ovarian = test system: OVCAR-5 ovarian
NCI-H522 lung = test system: NCI-H522 lung
T-47D breast = test system: T-47D breast
A549 NSCLC = test system: A549 NSCLC
HS 578T breast = test system: HS 578T breast

Structure (SMILES)	GI50 (OVCAR-4 ovarian) [µM]	TGI (OVCAR-4 ovarian)	GI50 (MDA-MB-435) [µM]	TGI (MDA-MB-435)	GI50 (HT29 colon) [µM]	TGI (HT29 colon)	GI50 (SF-539 CNS) [µM]	TGI (SF-539 CNS)	GI50 (CAKI-1 renal)	TGI (CAKI-1 renal)	GI50 (OVCAR-5 ovarian) [µM]	TGI (OVCAR-5 ovarian)	GI50 (NCI-H522 lung) [µM]	TGI (NCI-H522 lung)	GI50 (T-47D breast) [µM]	TGI (T-47D breast)	GI50 (A549 NSCLC)	TGI (A549 NSCLC)	GI50 (HS 578T breast) [µM]	TGI (HS 578T breast)
COc1ccc(-c2cn(-c3cccc(C(=O)/C=C/c4ccc(O)c(OC)c4)c3)c(=O)[nH]2)cc1	4.03	> 24.4 µM	3.19	> 62.2 µM	2.99	> 22.7 µM	2.12	5.53 µM	5.79 µM	50.4 µM	8.25	35.4 µM	2.6	10.7 µM	3.27	40.8 µM	3.64 µM	> 53 µM	3.24	> 27.2 µM
N#Cc1ccc(C2C3=C(CCCC3=O)OC3=C2C(=O)c2ccccc2C3=O)cc1 (configuration not stated)	0.265	1.07 µM	0.216	0.444 µM	2.91	8.04 µM	1.69	3.06 µM	1.88 µM	3.93 µM	2.09	4.23 µM	1.99	4.31 µM	0.453	2.24 µM	7.66 µM	22.3 µM	3.21	9.37 µM
O=C(NCCN1CCC(O)CC1)c1cc2c(o1)C(=O)c1ccccc1C2=O	0.182	0.436 µM	0.177	0.324 µM	0.296	3.43 µM	0.211	0.471 µM	1.28 µM	2.66 µM	0.212	0.384 µM	0.284	1.09 µM	0.376	1.85 µM	0.213 µM	0.514 µM	0.322	0.919 µM
O=C1c2cc(-c3ccccc3)ccc2-c2c1c1ccc([N+](=O)[O-])cc1c(=O)n2CCCBr	> 50	> 50 µM	> 50	> 50 µM	> 50	> 50 µM	> 28.7	> 50 µM	> 50 µM	> 50 µM	> 50	> 50 µM	> 50	> 50 µM	> 50	> 50 µM	> 50 µM	> 50 µM	10.5	> 40.7 µM
CSc1n(Cc2ccc3ccccc3c2)c(C)c[n+]1Cc1ccc2ccccc2c1	0.289	1.04 µM	0.436	1.57 µM	0.431	1.6 µM	0.797	2.12 µM	1.49 µM	2.97 µM	1.2	2.53 µM	0.311	1.3 µM	0.408	2.1 µM	1.28 µM	2.73 µM	1.02	2.7 µM
CCn1c2ccc(C(=O)CCCN(C)C)cc2c2cc(C(=O)CCCN(C)C)ccc21		4.17 µM		2.82 µM		4.24 µM		2.79 µM		7.42 µM		9.34 µM		8.68 µM		33.5 µM		3.27 µM		6.35 µM
COc1ccc2c(c1)CCc1[nH]nc(-c3cc(OC)c(OC)c(OC)c3)c1-2	< 0.01	56.5 µM	< 0.01	< 0.01 µM	< 0.01	10.1 µM	< 0.01	< 0.01 µM	< 0.01 µM	24.8 µM	0.242	38.8 µM	< 0.01	< 0.01 µM	3.59	21.3 µM	< 0.01 µM	19.5 µM	< 0.01	22.3 µM
Cn1c(/C=C(\C#N)c2cccc(C(F)(F)F)c2)nc2c(N3CCOCC3)nc(Cl)nc21	1	2.41 µM	1.02	2.43 µM	0.369	1.38 µM	1.25	2.52 µM	0.656 µM	1.97 µM	1.32	2.87 µM	0.657	2.32 µM	0.846	3.25 µM	1.31 µM	3.3 µM	1.26	4.38 µM
Nc1nc2ccc3[nH]ncc3c2c2c1CCCC2	3.6	7.92 µM	1.52	3.36 µM	1.88	11.8 µM	1.51	3.18 µM	0.609 µM	8.24 µM	1.94	8.91 µM	2.17	5.88 µM	2.55	11.7 µM	2.24 µM	13.4 µM	1.95	6.8 µM
COc1cc2c(cc1OC)C(CC1(O)CCCCC1)N(S(=O)(=O)c1ccc(C)cc1)CC2 (configuration not stated)	> 10	> 10 µM	> 10	> 10 µM	> 10	> 10 µM	> 10	> 10 µM	> 10 µM	> 10 µM	> 10	> 10 µM	> 10	> 10 µM	> 10	> 10 µM	> 10 µM	> 10 µM	> 10	> 10 µM
COc1c2c(c(CC=C(C)C)c3oc(=O)c(-c4ccc(O)cc4)c(O)c13)OC(C)(C)C=C2		58 µM		45.7 µM		> 100 µM		32.8 µM		> 100 µM		> 100 µM		62.9 µM		> 100 µM		> 100 µM		> 100 µM
COc1cc(F)cc([C@@H](CO)NC(=O)[C@@H](C)N2Cc3ccc(-c4nc(NC5CCOCC5)ncc4Cl)cc3C2=O)c1	7.91	> 91.6 µM	0.0347	31.8 µM	< 0.01	> 54.2 µM	5.33	33.9 µM	1.93 µM	69.1 µM	< 0.0127	> 100 µM	13.4	60.4 µM	5.03	33 µM	0.566 µM	> 100 µM	4.96	> 81.9 µM
CC(=O)OC1CC[C@@]2(C)C(CC[C@]3(C)C2CC=C2[C@@H]4CC(C)(C)CCC4(C)CCC23C)[C@@]1(C)C(=O)O (some centres not stated)		40.2 µM		44.1 µM		38.9 µM		50.7 µM		38.5 µM		47.5 µM		22.6 µM		44.9 µM		33.9 µM		45.3 µM
Clc1cccc(N2CCN(CCN3CCc4c([nH]c5ccccc45)C3c3cccnc3)CC2)c1 (configuration not stated)		> 100 µM		> 100 µM		> 80.4 µM		62.9 µM		> 100 µM		> 92.1 µM		> 100 µM		> 100 µM		> 100 µM		> 100 µM
COc1ccc(-c2nn(-c3cccc(Cl)c3)cc2-c2c(C#N)c(=O)n3[nH]c(-c4ccc(C)cc4)nc3c2C#N)cc1	1.09	4 µM	1.48	7.9 µM	1.49	> 50 µM	1.28	3.61 µM	2.46 µM	10.4 µM	4.5	11.8 µM	1.45	4.89 µM	5.15	12.1 µM	1.85 µM	12.4 µM	1.23	15 µM
Clc1ccc(C(c2ccc(Cl)cc2)N2CCNCC2)cc1		6.95 µM		3.63 µM		4.51 µM		3.02 µM		17.4 µM		18.3 µM		3.46 µM		5.25 µM		8.4 µM		7.89 µM
O=C(Nc1ccc2[nH]c(C(=O)N3CC(CCl)c4c3cc([N+](=O)[O-])c3ccccc43)cc2c1)c1cc2ccccc2o1 (configuration not stated)	> 1100	> 1100 µM	> 1100	> 1100 µM	> 1100	> 1100 µM		> 1100 µM	> 1100 µM	> 1100 µM	> 1100	> 1100 µM	> 1100	> 1100 µM	> 1100	> 1100 µM	> 1100 µM	> 1100 µM	> 1100	> 1100 µM
C[n+]1c2ccccc2c(Nc2ccc(NS(=O)(=O)CCCCN=C(N)N)cc2)c2ccc(N)cc21	5.4	> 100 µM	20.4	> 100 µM	1.02	84.5 µM	3.37	> 100 µM	10.1 µM	> 100 µM	41.8	> 100 µM	2.03	25.6 µM	0.222	13.5 µM	< 0.0128 µM	16 µM	2.79	52.3 µM
COc1ccc2c(c1)c1nc3cc(C)c(C)cc3nc1n2CCN(C)C	1.03	2.43 µM	1.09	2.51 µM	0.529	1.94 µM	0.907	2.35 µM	0.632 µM	2.1 µM	0.953	2.3 µM	0.582	2.8 µM	1.2	4.25 µM	0.495 µM	2.19 µM	1.77	6.23 µM
COc1ccc2c3c(c4ccccc4cc13)C(=O)N(CCN(C)CCN)C2=O	0.299	1.7 µM	0.343	1.71 µM	0.114	1.13 µM	0.186	1.35 µM	0.0541 µM	2.82 µM	0.293	1.54 µM	0.0742	1.23 µM	0.0877	12.6 µM	0.0113 µM	0.243 µM	1.19	3.67 µM
O=CC(Br)C(Br)c1ccccc1 (configuration not stated)	1.69	3.14 µM	1.74	3.63 µM	1.71	3.19 µM	1.87	4.36 µM	2.6 µM	6.98 µM	4.5	13.2 µM	1.72	3.56 µM	0.942	3.17 µM	21.1 µM	49.9 µM	8.81	43.9 µM
Oc1ccc2ccccc2c1C1NN=C(c2ccccc2)S1 (configuration not stated)	0.515	> 71.3 µM	0.632	42.4 µM	0.724	40 µM	0.361	16 µM	0.339 µM	17.8 µM	1.95	> 77.5 µM	0.307	13.5 µM	0.525	33.5 µM	0.587 µM	84.1 µM	2.41	44.4 µM
CCOc1ccc2nc(-c3cccc(OCC(=O)NC(C)C)c3)nc(Nc3ccc(-c4cn[nH]c4)cc3)c2c1	1.53	3.52 µM	0.485	3.81 µM	0.751	5.09 µM	1.25	2.67 µM	0.968 µM	3.87 µM	3.3	21.9 µM	0.62	3.33 µM	0.292	3.57 µM	0.769 µM	3.54 µM	0.132	1.72 µM
COc1ccc([I+]c2ccccc2)cc1	1.34	> 100 µM	10.1	> 100 µM	4.22	> 100 µM	6.77	> 100 µM	12.5 µM	> 100 µM	> 100	> 100 µM	24.5	> 100 µM	9.22	> 100 µM	4.38 µM	> 100 µM	15.9	> 100 µM
O=C1NC(=O)C(c2ccc(Cl)cc2)=C1Nc1ccc(Cl)c(C(=O)O)c1	> 25	> 25 µM	> 25	> 25 µM	> 25	> 25 µM	> 25	> 25 µM	> 25 µM	> 25 µM	> 25	> 25 µM	> 25	> 25 µM	> 25	> 25 µM	> 25 µM	> 25 µM	> 25	> 25 µM
OC(C1CO1)C(O)C1CO1 (configuration not stated)	134	150 µM and 299 µM	46.1	150 µM and 246 µM	97.7	150 µM and 345 µM		106 µM and 128 µM	15 µM and 5.46 µM	91.5 µM and 158 µM	93.9	137 µM and 237 µM	11.3	94.8 µM and 175 µM		150 µM and 425 µM	16.5 µM and 8.67 µM	150 µM and 235 µM	39.3	150 µM and 392 µM
